Reference: patent US7968554B2, “Pyrazolo[3,4-d]pyrimidine derivatives” (Hoffman-La Roche Inc., priority 2007, dated 2011)
pIC50: −log10 of the molar value.

Biological target: T1, b-Raf V600E (Homo sapiens, UniProt P15056, V600E)
T1 construct: recombinant human b-Raf residues 416-end containing a V600E mutation; purchased Upstate 14-5M; host or cells: baculovirus, Sf21 insect cells
Assay: b-Raf V600E mutant HTRF assay with 6H-MEK as substrate (dose response)
Format: biochemical
Details: kinase enzyme inhibition, 6H-MEK substrate, read-out: bRaf(V600E) IC50
Protocol: Kinase Enzyme Inhibition Assay (IC50)
• Enzyme: recombinant human b-Raf residues 416-end with N-terminal GST-tag from Upstate; (expressed by baculovirus in Sf21 insect cells), 0.26 mg/mL (3.87 μM assuming a molecular weight of 67.2 kD) Cat. #14-530M, Lot #25502AU, stored at −80° C. • Substrate: WT full-length 6H-MEK, 4.94 mg/mL (154.4 μM assuming a MW of 32 kD) stored at −15° C. • Antibodies: Rabbit (α-P-(Ser 217/221)-MEK-1/2 Ab (from Cell Signaling, Cat. #9121B, Lot 14); Eu-(α-rabbit IgG (from Wallac, Cat. #AD0083, Lot 318663, 710 ug/mL, 4.4 μM); (α-6H-SureLight-APC (from Martek, Cat. #AD0059H, Lot E012AB01, 3.03 μM). • Reader: Envision from PerkinElmer, HTRF reading mode with 412 mirror • Assay Plate: Matrix all-black polypropylene plates (Cat. #4344) • Others: Weidman 384 polypropylene plates (REMP) for compound plate. Assay Procedure: • (1) Prepare Kinase Assay Buffer (KAB): 50 mM HEPES (HyClone) pH7, 10 mM MgCl2, 1 mM DTT, 0.1 mM […], and 0.3 mg/ml BSA. • (2) Prepare 6H-MEK (150 nM) in KAB. Add 12 μL/well to the assay plate. • (3) Prepare ATP (66 μM) in KAB. • (4) Dilute compounds to 2.4 mM and any positive controls to 480 μM in DMSO. Perform 10-point 3× dilution in DMSO. Withdraw 2.5 μL/well of DMSO solution and add to 27.5 μL/well ATP solution in (3). • (5) Mix, then add 6 μL/well of solution in (4) to the assay plate for a DMSO concentration of 2.1% during MEK phosphorylation. • (6) Prepare b-Raf WT (100 μM) in KAB. • (7) Add 6 μL/well of KAB in columns 1-2 and 6 μL/well of b-Raf WT in columns 3-24. • (8) Incubate at 37° C. for 30 min. • (9) Prepare rabbit (α-P-(Ser 217/221 )-MEK-1/2 Ab (1:200 from stock) in AB1: 50 mM HEPES pH7, 0.2 mg/ml BSA, and 43 mM EDTA. • (10) To stop reaction, add 6 μL/well of solution from (9) to the assay plate and incubate at 37° C. for 30 min. • (11) Prepare Eu-(α-rabbit IgG (9 nM) and (α-6H-SureLight-APC (180 nM) in AB2: 50 mM HEPES pH7 and 0.2 mg/mL BSA. • (12) Add 6 μL/well of solution from (11) to the assay plate. • (13) For determining the spectrum cross talk factor, prepare 2 samples following steps (1) to (10). For the blank sample, add 6 μL/well of AB2. For the cross talk factor sample, add 6 μL/well of Eu-anti rabbit IgG (9 nM). • (14) Incubate at room temperature for 1.5 hours. • (15) Read HTRF signals at 615 nm and 665 nm on the Envision. Normalize HTRF signals after spectrum cross-talk correction. b-Raf V600E Mutant HTRF Assay With 6H-MEK as Substrate (Dose Response) Assay Principle:
The assay utilizes 6H-MEK as the substrate. Upon b-Raf V600E phosphorylation, phosphorylated 6H-MEK is detected with rabbit anti-phospho-MEK1/2, Eu-labeled anti-rabbit, and APC-labeled anti-6H antibodies.
Reagents and Instruments:
• Enzyme: recombinant human b-Raf residues 416-end containing a V600E mutation with N-terminal GST-tag from Upstate; (expressed by baculovirus in Sf21 insect cells), 0.26 mg/mL ([…] assuming a molecular weight of 67.3 kD) Cat. #14-5M, Lot #25633AU, stored at −80° C. • Substrate: WT full-length 6H-MEK, 4.94 mg/mL (154.4 μM assuming a MW of 32 kD) stored at −15° C. • Antibodies: Rabbit (α-P-(Ser 217/221)-MEK-1/2 Ab (from Cell Signaling, Cat. #9121B, Lot 14); Eu-(α-rabbit IgG (from Wallac, Cat. #AD0083, Lot 318663, 710 ug/mL, 4.4 μM); (α-6H-SureLight-APC (from Martek, Cat. #AD0059H, Lot E012AB01, 3.03 μM). • Reader: Envision from PerkinElmer, HTRF reading mode with 412 mirror • Assay Plate: Matrix all-black polypropylene plates (Cat. #4344) • Others: Weidman 384 polypropylene plates (REMP) for compound plate. Assay Procedure: • (1) Prepare Kinase Assay Buffer (KAB): 50 mM HEPES (HyClone) pH7, 10 mM MgCl2, 1 mM DTT, 0.1 mM […], and 0.3 mg/ml BSA. • (2) Prepare 6H-MEK (150 nM) in KAB. Add 12 μl/well to the assay plate. • (3) Prepare ATP (66 μM) in KAB. • (4) Dilute compounds to 2.4 mM and positive controls to 480 μM in DMSO. • Perform 10-point 3× dilution in DMSO. […]

T1 sequence (P15056 416-766 V600E): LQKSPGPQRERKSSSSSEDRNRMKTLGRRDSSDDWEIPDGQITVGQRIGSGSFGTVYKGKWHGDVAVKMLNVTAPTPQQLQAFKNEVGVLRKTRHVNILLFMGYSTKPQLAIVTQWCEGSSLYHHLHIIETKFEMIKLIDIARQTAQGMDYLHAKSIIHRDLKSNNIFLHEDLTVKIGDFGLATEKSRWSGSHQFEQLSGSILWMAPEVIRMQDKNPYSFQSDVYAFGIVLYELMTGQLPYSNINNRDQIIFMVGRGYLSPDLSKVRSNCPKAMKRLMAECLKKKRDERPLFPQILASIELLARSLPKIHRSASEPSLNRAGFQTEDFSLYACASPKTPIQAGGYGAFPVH

Row | SMILES | pIC50
1 | Cn1nc(COc2cccc(OCc3ccccc3)c2)c2c(N)ncnc21 [Example 7, 3-(3-Benzyloxy-phenoxymethyl)-1-methyl-1H-pyrazolo[3,4-d]pyrimidin-4-ylamine] | < 5.00
2 | Cc1ccc(NC(=O)c2ccc(NCCO)c(Cl)c2)cc1OCc1nn(C)c2ncnc(N)c12 [Example 9, N-[3-(4-Amino-1-methyl-1H-pyrazolo[3,4-d]pyrimidin-3-ylmethoxy)-4-methyl-phenyl]-3-chloro-4-(2-hydroxy-ethylamino)-benzamide] | > 5.00
3 | Cc1ccc(NC(=O)c2cccc(Cl)c2)cc1OCc1nn(C)c2ncnc(N)c12 [Example 11, N-[3-(4-Amino-1-methyl-1H-pyrazolo[3,4-d]pyrimidin-3-ylmethoxy)-4-methyl-phenyl]-3-chloro-benzamide] | > 5.00
4 | Cc1noc(-c2ccc(C)c(OCc3nn(C)c4ncnc(N)c34)c2)n1 [Example 13, 4-Amino-1-1-methyl-3-[2-methyl-5-(3-methyl-[1,2,4]oxadiazol-5-yl)-phenoxymethyl]-1H-pyrazolo[3,4-d]pyrimidine] | < 5.00
5 | Cc1ccc(OCc2ccccc2)cc1OCc1nn(C)c2ncnc(N)c12 [Example 15, 3-(5-Benzyloxy-2-methyl-phenoxymethyl)-1-methyl-1H-pyrazolo[3,4-d]pyrimidin-4-ylamine] | > 5.00
6 | Cc1ccc(C(=O)Nc2ccc(Cl)cc2)cc1OCc1nn(C)c2ncnc(N)c12 [Example 17, 3-(4-Amino-1-methyl-1H-pyrazolo[3,4-d]pyrimidin-3-ylmethoxy)-N-(4-chloro-phenyl)-4-methyl-benzamide] | > 5.00
7 | Cc1ccc(OCc2ccc(Cl)cc2)cc1OCc1nn(C)c2ncnc(N)c12 [Example 19, 3-[5-(4-Chloro-benzyloxy)-2-methyl-phenoxymethyl]-1-methyl-1H-pyrazolo[3,4-d]pyrimidin-4-ylamine] | > 5.00
8 | Cc1nnc(-c2ccc(C)c(OCc3nn(C)c4ncnc(N)c34)c2)o1 [Example 21, 1-Methyl-3-[2-methyl-5-(5-methyl-[1,3,4]oxadiazol-2-yl)-phenoxymethyl]-1H-pyrazolo[3,4-d]pyrimidin-4-ylamine] | < 5.00
